In the test the target is T1, porcine gastric H+/K+-ATPase (Sus scrofa, UniProt P19156).
T1 construct: The gastric vesicles were collected from interface on 0.25 M sucrose layer containing 7% Ficoll; from tissue; host or cells: mucous membrane of fresh porcine stomachs (gastric vesicles)
T1 sequence (P19156 2-1034 limits assumed): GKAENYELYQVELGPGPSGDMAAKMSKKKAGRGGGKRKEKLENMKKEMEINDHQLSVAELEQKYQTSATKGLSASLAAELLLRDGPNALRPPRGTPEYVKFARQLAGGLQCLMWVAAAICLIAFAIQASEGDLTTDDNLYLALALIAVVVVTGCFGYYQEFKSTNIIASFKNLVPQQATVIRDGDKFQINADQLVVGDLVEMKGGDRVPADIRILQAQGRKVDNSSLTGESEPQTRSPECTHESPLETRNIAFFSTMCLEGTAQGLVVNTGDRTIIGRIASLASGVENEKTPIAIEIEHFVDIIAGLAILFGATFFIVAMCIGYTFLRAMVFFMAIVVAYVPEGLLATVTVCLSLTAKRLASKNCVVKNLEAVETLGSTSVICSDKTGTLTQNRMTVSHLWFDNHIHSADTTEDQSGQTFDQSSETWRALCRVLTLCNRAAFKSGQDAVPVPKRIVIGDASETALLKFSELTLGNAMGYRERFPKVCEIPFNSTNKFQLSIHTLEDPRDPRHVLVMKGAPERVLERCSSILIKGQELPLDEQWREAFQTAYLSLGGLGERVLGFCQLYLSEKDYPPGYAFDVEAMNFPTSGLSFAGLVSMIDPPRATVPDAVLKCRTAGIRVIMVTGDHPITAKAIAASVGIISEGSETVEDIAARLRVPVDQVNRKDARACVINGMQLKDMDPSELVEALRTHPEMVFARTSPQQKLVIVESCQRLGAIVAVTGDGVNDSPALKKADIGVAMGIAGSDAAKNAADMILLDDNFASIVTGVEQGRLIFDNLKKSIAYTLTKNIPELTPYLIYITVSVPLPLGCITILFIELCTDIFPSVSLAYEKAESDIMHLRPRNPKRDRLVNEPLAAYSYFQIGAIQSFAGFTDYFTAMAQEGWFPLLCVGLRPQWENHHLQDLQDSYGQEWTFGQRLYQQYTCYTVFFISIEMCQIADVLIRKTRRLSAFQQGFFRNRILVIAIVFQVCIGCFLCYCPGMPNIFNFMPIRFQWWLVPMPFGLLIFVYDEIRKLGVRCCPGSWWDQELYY
T1 sequence (P18434 whole entry partner): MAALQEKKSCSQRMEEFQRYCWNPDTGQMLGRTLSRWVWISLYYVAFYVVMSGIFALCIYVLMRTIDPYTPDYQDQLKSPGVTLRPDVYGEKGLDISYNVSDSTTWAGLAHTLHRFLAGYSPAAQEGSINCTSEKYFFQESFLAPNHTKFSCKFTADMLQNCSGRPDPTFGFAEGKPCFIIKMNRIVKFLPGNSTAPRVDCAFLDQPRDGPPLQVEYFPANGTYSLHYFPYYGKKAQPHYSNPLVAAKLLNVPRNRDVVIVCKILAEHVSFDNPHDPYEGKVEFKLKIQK
Kind of test: Ion-leaky porcine gastric H+/K+-ATPase inhibition. Type of test: biochemical. Conditions: ion-leaky lyophilized porcine gastric vesicles, 5 mM KCl, pH 6.4, 37° C., 30 minutes; read-out: IC50 values of the inhibitory activity. On the procedure: The porcine gastric vesicles for Porcine gastric H^+/K^+-ATPase inhibition assays were prepared from mucous membrane in fresh porcine stomachs by homogenization with a tight-fitted polytetrafluoroethylene (Teflone®) homogenizer in 0.25 M sucrose at 4° C. The crude pellet was removed with centrifugation at 20,000 g for 30 min. Then supernatant was centrifuged at 100,000 g for 30 min. The resulting pellet was re-suspended in 0.25 M sucrose, and then subjected to density gradient centrifugation at 132,000 g for 90 min. The gastric vesicles were collected from interface on 0.25 M sucrose layer containing 7% Ficoll™ PM400 (Amersham Biosciences). This procedure was performed in a cold room.
Ion-leaky porcine gastric H^+/K^+-ATPase inhibition was measured according to the modified method described in Biochemical Pharmacology, 1988, 37, 2231-2236.
The isolated vesicles were lyophilized, and then kept in deep-freezer until use. For enzyme assay, lyophilized vesicles were reconstituted with 3 mM MgSO4 containing 40 mM Bis-tris (pH 6.4 at 37° C.).
Enzyme reaction was performed incubating 5 mM KCl, 3 mM Na2ATP, 3 mM MgSO4 and 1.0 μg of reconstituted vesicles for 30 minutes at 37° C. in a final 60 μl of reaction mixture (40 mM Bis-tris, pH 6.4) with or without the test compound. Enzyme reaction was stopped by adding 10% sodium dodecyl sulphate (SDS). Released inorganic phosphate from ATP was detected by incubation with mixture of 1 part of 35 mM ammonium molybdate tetrahydrate in 15 mM Zinc acetate hydrate and 4 parts of 10% ascorbic acid (pH 5.0), resulting in phosphomolybdate, which has optical density at 750 nm.
Take `COCCn1c(C)nc2cc(C(=O)N(C)C)c3c(c21)OC(c1ccccc1)CC3` (single isomer, unassigned; (-)) [Example 3, (−)-1-(2-Methoxyethyl)-N,N,2-trimethyl-8-phenyl-1,6,7,8-tetrahydrochromeno[7,8-d]imidazole-5-carboxamide]: the IC50 was 68 nM.

With `COCCn1c(C)nc2cc(C(=O)N3CCC3)c3c(c21)OC(c1ccccc1)CC3` (single isomer, unassigned; (-)) [Example 16, (−)-5-(Azetidin-1-ylcarbonyl)-1-(2-methoxyethyl)-2-methyl-8-phenyl-1,6,7,8-tetrahydrochromeno[7,8-d]imidazole], the IC50 stood at 74 nM.

Turning to `COCCn1c(C)nc2cc(C(=O)N(C)CCO)c3c(c21)OC(c1ccc(F)cc1F)CC3` (single isomer, unassigned; (-)) [Example 12, (−)-8-(2,4-Difluorophenyl)-N-(2-hydroxyethyl)-1-(2-methoxyethyl)-N,2-dimethyl-1,6,7,8-tetrahydrochromeno[7,8-d]imidazole-5-carboxamide], the IC50 is 90 nM.

On to `Cc1nc2cc(C(=O)N(C)C)c3c(c2n1Cc1ccon1)OC(c1ccc(F)cc1)CC3` (centres unmarked) [Example 9, 8-(4-Fluorophenyl)-1-(isoxazol-3-ylmethyl)-N,N,2-trimethyl-1,6,7,8-tetrahydrochromeno[7,8-d]imidazole-5-carboxamide], for which the IC50 amounted to 350 nM.

Take `COCCn1c(C)nc2cc(C(=O)N(C)CCO)c3c(c21)OC(c1ccc(F)cc1F)CC3` (single isomer, unassigned; (+)) [Example 13, (+)-8-(2,4-Difluorophenyl)-N-(2-hydroxyethyl)-1-(2-methoxyethyl)-N,2-dimethyl-1,6,7,8-tetrahydrochromeno[7,8-d]imidazole-5-carboxamide]: the IC50 came out at 340 nM.

Regarding `COCCn1c(C)nc2cc(C(=O)N3CCC3)c3c(c21)OC(c1ccccc1)CC3` (single isomer, unassigned; (+)) [Example 17, (+)-5-(Azetidin-1-ylcarbonyl)-1-(2-methoxyethyl)-2-methyl-8-phenyl-1,6,7,8-tetrahydrochromeno[7,8-d]imidazole], the IC50 amounted to 1000 nM.

For the compound `COCCn1c(C)nc2cc(C(=O)N3CC(F)C3)c3c(c21)OC(c1ccccc1)CC3` (centres unmarked) [Example 14, 5-[(3-Fluoroazetidin-1-yl)carbonyl]-1-(2-methoxyethyl)-2-methyl-8-phenyl-1,6,7,8-tetrahydrochromeno[7,8-d]imidazole], the IC50 is 270 nM.

For `COCCn1c(C)nc2cc(C(=O)N(C)CCO)c3c(c21)OC(c1ccc(F)cc1F)CC3` (racemic) [Example 11, 8-(2,4-Difluorophenyl)-N-(2-hydroxyethyl)-1-(2-methoxyethyl)-N,2-dimethyl-1,6,7,8-tetrahydrochromeno[7,8-d]imidazole-5-carboxamide], the IC50 was found to be 210 nM.

In the case of `COCCn1c(C)nc2cc(C(=O)N(C)CCO)c3c(c21)OC(c1ccccc1)CC3` (centres unmarked) [Example 4, N-(2-Hydroxyethyl)-1-(2-methoxyethyl)-N,2-dimethyl-8-phenyl-1,6,7,8-tetrahydrochromeno[7,8-d]imidazole-5-carboxamide], the IC50 was determined as 190 nM.

On to `COCCn1c(C)nc2cc(C(=O)N(C)C)c3c(c21)OC(c1ccccc1)CC3` (racemic) [Example 1, 1-(2-Methoxyethyl)-N,N,2-trimethyl-8-phenyl-1,6,7,8-tetrahydrochromeno[7,8-d]imidazole-5-carboxamide], for which the IC50 was 98 nM.

For the compound `COCCn1c(C)nc2cc(C(=O)N(C)C)c3c(c21)OC(c1ccc(F)cc1)CC3` (single isomer, unassigned; (-)) [Example 7, (−)-8-(4-Fluorophenyl)-1-(2-methoxyethyl)-N,N,2-trimethyl-1,6,7,8-tetrahydrochromeno[7,8-d]imidazole-5-carboxamide], the IC50 amounted to 38 nM.

Regarding `COCCn1c(C)nc2cc(C(=O)N(C)C)c3c(c21)OC(c1ccc(F)cc1)CC3` (racemic) [Example 5, 8-(4-Fluorophenyl)-1-(2-methoxyethyl)-N,N,2-trimethyl-1,6,7,8-tetrahydrochromeno[7,8-d]imidazole-5-carboxamide], the IC50 amounted to 88 nM.

Consider `COCCn1c(C)nc2cc(C(=O)N3CCC3)c3c(c21)OC(c1ccccc1)CC3` (racemic) [Example 15, 5-(Azetidin-1-ylcarbonyl)-1-(2-methoxyethyl)-2-methyl-8-phenyl-1,6,7,8-tetrahydrochromeno[7,8-d]imidazole], for which the IC50 worked out at 200 nM.

Turning to `[2H]C([2H])([2H])N(C(=O)c1cc2nc(C)n(CCOC)c2c2c1CCC(c1ccccc1)O2)C([2H])([2H])[2H]` (centres unmarked) [Example 10, N,N-Di[^2H3]methyl-1-(2-methoxyethyl)-2-methyl-8-phenyl-1,6,7,8-tetrahydrochromeno[7,8-d]imidazole-5-carboxamide], the IC50 is 100 nM.

Consider `COCCn1c(C)nc2cc(C(=O)N(C)C)c3c(c21)OC(c1ccc(F)cc1)CC3` (single isomer, unassigned; (+)) [Example 6, (+)-8-(4-Fluorophenyl)-1-(2-methoxyethyl)-N,N,2-trimethyl-1,6,7,8-tetrahydrochromeno[7,8-d]imidazole-5-carboxamide], for which the IC50 was found to be 230 nM.

For the compound `COCCn1c(C)nc2cc(C(=O)N(C)C)c3c(c21)OC(c1ccccc1)CC3` (single isomer, unassigned; (+)) [Example 2, (+)-1-(2-Methoxyethyl)-N,N,2-trimethyl-8-phenyl-1,6,7,8-tetrahydrochromeno[7,8-d]imidazole-5-carboxamide], the IC50 came out at 520 nM.

`Cc1nc2cc(C(=O)N(C)C)c3c(c2n1CCCO)OC(c1ccc(F)cc1)CC3` (centres unmarked) [Example 8, 8-(4-Fluorophenyl)-1-(3-hydroxypropyl)-N,N,2-trimethyl-1,6,7,8-tetrahydrochromeno[7,8-d]imidazole-5-carboxamide]: the IC50 stood at 340 nM.

The values above are taken from US8466166B2, “Benzimidazole derivatives as selective acid pump inhibitors” (Raqualia Pharma Inc., priority 2006, dated 2013).
